The subject of assay [1] is miR171b. In words: Accumulation of miR171b in M. truncatula roots (qRT-PCR). In kind it is in vivo, Medicago truncatula. The method, then: (§1) The surface of the seeds of M. truncatula was sterilized and they were placed to germinate on agar plates for 5 days at 4° C. in the dark. The young shoots were then grown on 12 cm square plates filled with Fahraeus medium without nitrogen and containing 7.5 μM phosphate (Lauresergues et al., Plant J., 72(3):512-22, 2012). The lateral roots were counted every day. In pots, the plants were watered every two days with modified Long Ashton medium containing little phosphorus (Balzergue et al., 2011 Journal of experimental botany, 62:1049-1060).
(§2) The peptides were synthesized by Eurogentec or Smartox-Biotech. The miPEP171b was placed in suspension in a water 40%/acetonitrile 50%/acetic acid 10% (v/v/v) solution.
The RNA was extracted by using the reagent Tri-Reagent (MRC) according to the manufacturer's instructions, with the exception of precipitation of the RNA which was carried out with 3 volumes of ethanol. […]
(§3) The mean values of the relative expression of the genes or of the production of lateral roots were analyzed by using the Student test or the Kruskal-Wallis test. […]
(§4) The composite plants having roots transformed with Agrobacterium Rhizogenes were obtained by the method described in Boisson-Dernier et al. (Mol Plant-Microbe Interact, 18:1269-1276, 2005). The transformed roots were verified and selected by observations of DsRED with a binocular fluorescence magnifier. […]

The test system of assay [2] is HAM1 (Accession No. MtGI9-TC114268). The assay is described as follows: Expression of the HAM1 gene in M. truncatula roots (qRT-PCR). The assay is classed as in vivo, Medicago truncatula. The method, then:
as §1, §2
(§5) The total RNA of the roots of M. truncatula was extracted by using the RNeasy Plant Mini Kit extraction kit (Qiagen). […]
as §3, §4

The subject of assay [3] is HAM2 (Accession No. MtGI9-TC120850). The assay is described as follows: Expression of the HAM2 gene in M. truncatula roots (qRT-PCR). The assay is classed as in vivo, Medicago truncatula. The method, then: as §1, §2, §5, §3, §4
Assay [4] has as its system lateral roots of M. truncatula. The assay is described as follows: Number of lateral roots in M. truncatula. In kind it is in vivo, Medicago truncatula. Here is the method: as §1, §2
The mean values of the relative expression of the genes or of the production of lateral roots were analyzed by using the Student test or the Kruskal-Wallis test. The error bars represent the standard error of the mean (SEM). The asterisks indicate a significant difference (p<0.05).
The DNA fragments of interest were amplified with Pfu polymerase (Promega). […]
as §4

In assay [5] the test system is colonization of M. truncatula by the fungus Rhizophagus irregularis. The assay is described as follows: Mycorrhization of M. truncatula by Rhizophagus irregularis. In kind it is in vivo, Medicago truncatula. The method, then:
Medicago truncatula plants were treated for 5 weeks, by watering every 2 days, with low concentrations (0.1 μM) of a synthetic peptide the sequence of which is identical to that of miPEP171b, and the percentage colonization of the plant was measured.
Sterile spores of Rhizophagus irregularis (previously called Glomus intraradices) DAOM197198 were purchased from Agronutrition (Carbonne, France).
Seeds of M. truncatula (Gaertn ‘Jemalong’ genotype A17) were sterilized on the surface and placed to germinate on agar plates in the dark for 5 days at 4° C. The plants were then grown on an Oil-Dri US-special substrate (Damolin, Denmark) for 5 to 12 weeks in a growing room and watered every 2 days with modified Long Ashton medium containing a low concentration of phosphate (Balzergue et al., J Exp Bot, 62(3):1049-60, 2011).
For the inoculation of the plants with R. irregularis, 450 spores were used per plant.
After washing in KOH 10% (weight/volume) and rinsing in sterile water, the mycorrhized roots were treated for 30 minutes with wheat germ agglutinin fluorescein conjugate (Invitrogen) which fixes the fungal chitin, then washed 3 times in a PBS buffer. The roots were then observed with an inverted optical microscope or a confocal microscope (Leica, France).
Alternatively, the roots were labelled with black Schaeffer ink according to the protocol described in Vierheilig et al., Appl Environ Microbiol, 64:5004-5007, 1998.
The percentage mycorrhization was measured using grids according to the protocol described in Giovannetti and Mosse, New Phytol, 84:489-500, 1980.
The accurate phenotyping of the mycorrhization was also carried out according to the method of Trouvelot et al., Physiological and Genetical Aspects of Mycorrhizae, pp 217-221, 1986. The frequency of mycorrhization (F) in the root system and the abundance of the arbuscules (A) (as a percentage) were calculated in colonized root sections using the software Mycocalc.
The size of the arbuscules was measured using the software ImageJ. […]

Assay [6] deals with mycorrhization of Solanum lycopersicum by Rhizophagus irregularis. The assay is described as follows: Mycorrhization of Solanum lycopersicum (tomato). In kind it is in vivo. The conditions noted are these: 0.1 μM slmiPEP171e, watering every two days, 12 weeks post inoculation; vs solvent; FIGS. 8 and 17. Here is the method: The effects of slmiPEP171e on mycorrhization of the tomato were analyzed by treating the plants with slmiPEP171e in parallel with the mycorrhization.
The seeds are sterilized for 2 minutes in sodium hypochlorite solution diluted ¼, then rinsed at least 8 times with sterile water.
The seeds are placed in a Petri dish containing water+1% agar. The dishes are placed at 4° C. overnight, then they are placed at ambient temperature for 4 days in order to germinate the seeds.
The germinated seeds are transferred to an Oil-Dry® substrate containing spores of Rhizophagus irregularis at the concentration of 400 spores/L. After two days of adaptation under mini-greenhouse the seedlings are transferred to a growing room or greenhouse. The plants are watered regularly with a solution of Long Ashton+nitrogen (Lauressergues et al., Plant J. 72(3):512-22, 2012).
The treatment is carried out by watering the plants with 12.5 ml of water+the concentrated solution of miPEP or the equivalent of solvent solution (50% acetonitrile) for the control treatment. The treatments are carried out every two days.
The roots are cleared with 1% KOH 7 minutes at 90° C., then stained 10 minutes in an ink solution (5% Sheaffer ink; 5% acetic acid) at 90° C.

In assay [7] the test system is mycorrhization of Oryza sativa by Rhizophagus irregularis. In words: Mycorrhization of Oryza sativa (rice). In kind it is in vivo. The conditions noted are these: 0.1 μM, 5 weeks post inoculation; vs solvent control; FIGS. 13, 14, 15, 16 and 19. Here is the method: The effects of the osmiPEP171i on mycorrhization of the rice were analyzed by treating the plants with osmiPEP171i in parallel with the mycorrhization.
The seeds are sterilized for 1 min with 70% ethanol, then for 30 min with sodium hypochlorite solution before rinsing.
Culturing of a previously germinated seed of rice is carried out in a pot containing vermiculite with cotton fibre at the bottom. 500 spores of Rhizophagus irregularis are added per pot. The spores in mixtures in a substrate are arranged in a layer on the vermiculite at approximately two thirds of the height of the pot. The remainder of the pot is then filled with vermiculite and a hole is made for placing a germinated rice seed therein. The substrate is moistened. The pots are then placed in a growing room at 25° C.
Treatments of the Plants with miPEP: • OsmiPEP171i: 0.1 μM (final) • Control: equivalent of 50% ACN solution
The treatments are carried out on Monday and Friday by mixing the solution of miPEP or control in 60 ml of nutrient solution (1/2 Hoagland with 25 μM Pi and Sequestren) and on Wednesday the solution of miPEP or control in 60 ml of water. Each plant is watered with 10 ml per pot. […]

The test system of assay [8] is mycorrhization of Lotus japonicus by Rhizophagus irregularis. In words: Mycorrhization of Lotus japonicus (birdsfoot trefoil). In kind it is in vivo. The conditions noted are these: 0.1 μM, 5 weeks post inoculation; vs control; FIGS. 9, 10, 11, 12 and 18. The method, then:
The effects of the LjmiPEP171b on mycorrhization of the birdsfoot trefoil were analyzed by treating the plants with LjmiPEP171b in parallel with the mycorrhization.
The seeds are sterilized in sodium hypochlorite solution for 20 min then rinsed several times in water.
Culturing of the birdsfoot trefoil plants is carried out in a pot containing vermiculite with cotton fibre at the bottom. 5,000 spores of Rhizophagus irregularis are added per pot. The spores in mixtures in a substrate are arranged in a layer on the vermiculite to approximately two thirds of the height of the pot. The remainder of the pot is then filled with vermiculite and 10 seeds of pre-germinated birdsfoot trefoil are placed in the moist substrate. 3 pots are prepared for each treatment. The pots are then places in a growing room at 25° C.
Treatments of the Plants with miPEP: • LjmiPEP171e: 0.1 μM (final) • Control: water.
The treatments are carried out on Monday and Friday by mixing the solution of miPEP or control with the nutrient solution (suitable B&D medium) and on Wednesday the solution of miPEP or control in water. Each pot is watered with 10 ml except on Friday 30 ml (without changing the quantity of miPEP), in order to last over the weekend. […]

[9] abbreviates: plant in which miPEP171b is overexpressed vs control plant, FIG. 2A.
Where [10] appears, read: synthetic peptide applied to roots, medium containing miPEP171b at 0.01 μM, 0.1 μM or 1 μM, vs control plant, FIG. 3A.

The source of these data is US10920236B2, “Use of micropeptides in order to stimulate mycorrhizal symbiosis” (UNIVERSITE TOULOUSE III—PAUL SABATIER, priority 2014, dated 2021).

As to “MLLHRLSKFCKIERDIVYIS (listed as Medicago truncatula) [miPEP171b]”, the “accumulation of miR171b (relative expression)” value in assay [1] (setting [9]) and in assay [1] (setting [10]) was “increase” each time. The “expression of the HAM1 gene (relative expression)” value in assay [2] (setting [9]) and in assay [2] (setting [10]) was “reduction” in each case. In addition, the “expression of the HAM2 gene (relative expression)” value in assay [3] (setting [9]) and in assay [3] (setting [10]) was “reduction” each time. Also, the “average number of lateral roots” value in assay [4] (medium containing miPEP171b at 0.1 μM for 5 days and 1 time per day, vs control plant, FIG. 3B) is on record as “reduction”; in assay [4] (plant in which miPEP171b is overexpressed vs control plant, FIG. 2B) it was “reduction”. The mycorrhization rate entry in assay [5] (0.1 μM miPEP171b, 5 weeks post inoculation, vs control plants, FIG. 7) is “greater”. Moreover, in assay [5] (0.1 μM synthetic peptide, watering every 2 days for 5 weeks, vs solvent control, FIG. 5), the “mycorrhization (percentage colonization of the plant)” value is “significantly increased”. For the same sequence, the “size (surface area) of the arbuscules” value in assay [5] (roots treated with 0.1 μM miPEP171b vs control roots, FIG. 6) is “larger size”.
For the sequence “MKLGNIEGTYFIICLGRYI (listed as Solanum lycopersicum) [slmiPEP171e]”, the “mycorrhization of the tomato” value in assay [6] is reported as “promotes”.
Turning to “MIARYIEREMTSKLGRGRKRAARLVAVFLLG (listed as Oryza sativa) [osmiPEP171i]”, the mycorrhization of rice result in assay [7] was “promotes”.
With “MYHRSKAKLCQTDGDDGGGSDM (listed as Lotus japonicus) [LjmiPEP171b]”, the “mycorrhization of birdsfoot trefoil” value in assay [8] is “promotes”.
